Results on 80 compounds are retold here after ChEMBL document CHEMBL5729210, “Benzodiazepine derivatives as RSV inhibitors” (2022).

Structures are written as SMILES.

The nature of the assay: RSV-A Assay: The description is Japanese.
For `C[C@@H]1CN(c2cc(C(F)(F)F)cnc2-c2nnc(N[C@H]3N=C(c4ccccc4)c4ccccc4NC3=O)o2)CCO1`, the EC50 (as a rule, the midpoint of the concentration-response curve) was < 400 nM.

For the compound `O=C1Nc2c(F)cccc2C(c2ccccc2)=NC1Nc1nnc(-c2ccc(N3CCOCC3)cc2)o1` (stereo not given), the EC50 entry was “in the range around 600 nM”.

Take `O=C1Nc2ccccc2C(c2ccccc2)=NC1Nc1nnc(-c2ccccc2)s1` (stereo not given): the EC50 was > 800 nM.

Take `COC(=O)c1nc(C)sc1N1CCOCC1`: the EC50 is < 400 nM.

Turning to `O=C1Nc2ccccc2C(c2ccccc2)=NC1Nc1nnc(-c2ccc(N3CCOCC3)c(F)c2)o1` (stereo not given), the EC50 was > 800 nM.

As to `O=C1Nc2ccccc2C(c2ccccc2)=N[C@@H]1Nc1nnc(-c2oc3cccc(F)c3c2N2CCOCC2)o1`, the EC50 is < 400 nM.

As to `O=C1Nc2ccccc2C(c2ccccc2)=N[C@H]1Nc1nnc(-c2ccc(F)cc2)o1`, the EC50 was > 800 nM.

With `COCCn1nccc1-c1nnc(N[C@H]2N=C(c3ccccc3)c3ccccc3NC2=O)o1`, the EC50 is > 800 nM.

Turning to `COc1ccc(-c2nnc(NC3N=C(c4ccccc4)c4ccccc4NC3=O)o2)cc1` (stereo not given), the EC50 is > 800 nM.

Consider `O=C1Nc2ccccc2C(c2ccccc2)=N[C@@H]1Nc1nnc(-c2cc(C(F)(F)F)sc2N2CCOCC2)o1`, for which the EC50 is < 400 nM.

In the case of `O=C1Nc2ccccc2C(c2ccccc2)=NC1Nc1nnc(C2(F)CC2)o1` (stereo not given), the EC50 was > 800 nM.

For `O=C1Nc2ccccc2C(c2ccccc2)=N[C@@H]1Nc1nnc(-c2oc3cc(F)ccc3c2N2CCOCC2)o1`, the EC50 result is “in the range around 600 nM”.

For the compound `O=C1Nc2ccccc2C(c2ccccc2)=NC1Nc1nnc(-c2ccc(F)cc2)s1` (stereo not given), the EC50 was > 800 nM.

Take `CN1CCc2nc(-c3nnc(NC4N=C(c5ccccc5)c5ccccc5NC4=O)o3)sc2C1` (stereo not given): the EC50 is > 800 nM.

As to `N#Cc1cnc(N2CCOCC2)c(-c2nnc(N[C@H]3N=C(c4ccccc4)c4ccccc4NC3=O)o2)c1`, the EC50 was < 400 nM.

In the case of `O=C1Nc2ccccc2C(c2ccccc2)=N[C@@H]1Nc1nnc(-c2nc3ccccc3nc2N2CCOCC2)o1`, the EC50 is < 400 nM.

As to `O=C1Nc2ccccc2C(c2ccccc2)=NC1Nc1nnc(-c2ccc(-n3cnnc3)cc2)o1` (stereo not given), the concentration giving a half-maximal response (EC50) is > 800 nM.

For `CC1(C)C[C@@H]1c1nnc(NC2N=C(c3ccccc3)c3ccccc3NC2=O)o1` (stereo not given in full), the EC50 was > 800 nM.

For `CC(C)(C)c1nnc(NC2N=C(c3ccccc3)c3ccccc3NC2=O)o1` (stereo not given), the EC50 is > 800 nM.

On to `O=C1Nc2ccccc2C(c2ccccc2)=NC1Nc1nnc(C2CCNC2)o1` (stereo not given), for which the EC50 was > 800 nM.

On to `N#Cc1cc(-c2nnc(NC3N=C(c4ccccc4)c4ccccc4NC3=O)o2)ccn1` (stereo not given), for which the half-maximal effective concentration (EC50) was > 800 nM.

In the case of `CS(=O)(=O)c1ccc(-c2nnc(NC3N=C(c4ccccc4)c4ccccc4NC3=O)o2)c(N2CCOCC2)c1` (stereo not given), the EC50 was > 800 nM.

For `C[C@@H]1COCCN1c1cc(C#N)ccc1-c1nnc(N[C@H]2N=C(c3ccccc3)c3ccccc3NC2=O)o1`, the concentration giving a half-maximal response (EC50) was < 400 nM.

In the case of `COc1ccc(CN2C(=O)C(Nc3ccc(-c4ccccc4)nn3)N=C(c3ccccc3)c3ccccc32)cc1` (stereo not given), the EC50 entry is “in the range around 600 nM”.

With `Cc1cc(-c2nnc(NC3N=C(c4ccccc4)c4ccccc4NC3=O)o2)ccc1C#N` (stereo not given), the EC50 result was “in the range around 600 nM”.

As for `Cn1ncc(N2CCOCC2)c1-c1nnc(N[C@H]2N=C(c3ccccc3)c3ccccc3NC2=O)o1`, the EC50 entry is “in the range around 600 nM”.

As for `O=C1Nc2ccccc2C(c2ccccc2)=N[C@@H]1Nc1nnc(-c2ccco2)o1`, the EC50 entry is “in the range around 600 nM”.

Turning to `O=C1Nc2ccccc2C(c2ccccc2)=N[C@@H]1Nc1nnc(-c2ncc(F)cc2N2CC3CCC(C2)O3)o1`, the EC50 was < 400 nM.

For the compound `C[C@@H]1COCCN1c1ncccc1-c1nnc(NC2N=C(c3ccccc3)c3ccccc3NC2=O)o1` (stereo not given in full), the half-maximal effective concentration (EC50) is < 400 nM.

Take `O=C1Nc2ccccc2C(c2ccccc2)=N[C@H]1Nc1nnc(-c2ccc(N3CCOCC3)cc2)o1`: the EC50 was > 800 nM.

Turning to `COCCCc1sc(C(F)(F)F)nc1-c1nnc(N[C@H]2N=C(c3ccccc3)c3ccccc3NC2=O)o1`, the EC50 was > 800 nM.

On to `CN1CCN(c2cc(C(F)(F)F)cnc2-c2nnc(N[C@H]3N=C(c4ccccc4)c4ccccc4NC3=O)o2)CC1=O`, for which the concentration for a half-maximal effect (EC50) is > 800 nM.

Take `COCCc1cccn2ncc(-c3nnc(N[C@H]4N=C(c5ccccc5)c5ccccc5NC4=O)o3)c12`: the EC50 is > 800 nM.

Turning to `Cc1nc(-c2nnc(N[C@H]3N=C(c4ccccc4)c4ccccc4NC3=O)o2)c(N2CCOCC2)o1`, the half-maximal effective concentration (EC50) is < 400 nM.

As for `N#CCCc1nnc(NC2N=C(c3ccccc3)c3ccccc3NC2=O)o1` (stereo not given), the EC50 was > 800 nM.

Consider `O=C1Nc2ccccc2C(c2ccccc2)=NC1Nc1nnc(-c2ccccc2F)o1` (stereo not given), for which the EC50 was > 800 nM.

As for `O=C1Nc2ccccc2C(c2ccccc2)=NC1Nc1cc(-c2ccccc2)ncn1` (stereo not given), the EC50 was > 800 nM.

In the case of `COc1ccc(-c2ccc(NC3N=C(c4ccccc4)c4ccccc4NC3=O)nn2)cc1` (stereo not given), the EC50 was > 800 nM.

For the compound `O=C1Nc2ccccc2C(c2ccccc2)=NC1Nc1nnc(-c2ccccc2N2CCS(=O)(=O)CC2)o1` (stereo not given), the EC50 is > 800 nM.

For `O=C1Nc2ccccc2C(c2ccccc2)=N[C@@H]1Nc1nnc(-c2cnc(C(F)(F)F)nc2N2CC3CCC(C2)O3)o1`, the EC50 was > 800 nM.

Turning to `CCc1nc(-c2nnc(N[C@H]3N=C(c4ccccc4)c4ccccc4NC3=O)o2)c(N2CCOCC2)s1`, the EC50 was < 400 nM.

Take `COC[C@H]1C[C@@H]1c1cc(C(F)(F)F)cnc1-c1nnc(N[C@@H]2N=C(c3ccccc3)c3ccccc3NC2=O)o1`: the EC50 is > 800 nM.

For the compound `O=C1Nc2ccccc2C(c2ccccc2)=N[C@@H]1Nc1nnc(-c2ccccc2N2CCOCC2)o1`, the EC50 was < 400 nM.

As to `O=C1Nc2ccccc2C(c2ccccc2)=NC1Nc1nnc(-c2cncs2)o1` (stereo not given), the EC50 is > 800 nM.

For `O=C1Nc2c(F)cccc2C(c2ccccc2)=N[C@H]1Nc1nnc(-c2ncc(C(F)(F)F)cc2N2CCOCC2)o1`, the EC50 is < 400 nM.

Take `N#Cc1cnc(-c2nnc(N[C@H]3N=C(c4ccccc4)c4ccccc4NC3=O)o2)c(N2CC3CCC(C2)O3)c1`: the EC50 is < 400 nM.

On to `COc1cc(-c2nnc(NC3N=C(c4ccccc4)c4ccccc4NC3=O)o2)ccc1-n1cnc(C)c1` (stereo not given), for which the EC50 was > 800 nM.

With `N#CC1CN(c2ncccc2-c2nnc(NC3N=C(c4ccccc4)c4ccccc4NC3=O)o2)C1` (stereo not given), the 50% effective concentration (EC50) is > 800 nM.

In the case of `O=C1Nc2ccccc2C(c2ccccc2)=N[C@@H]1Nc1nnc(-c2ccc(N3C4CCC3COC4)cc2Cl)o1`, the EC50 is > 800 nM.

As for `O=C1Nc2c(F)cccc2C(c2ccccc2)=N[C@@H]1Nc1nnc(-c2ccccc2N2CCOCC2)o1`, the EC50 is < 400 nM.

With `O=C1Nc2ccccc2C(c2ccccc2)=N[C@@H]1Nc1nnc(-c2ncc(Br)cc2N2CCOCC2)o1`, the concentration for a half-maximal effect (EC50) is < 400 nM.

On to `CC(=O)N1CCC(c2nnc(NC3N=C(c4ccccc4)c4ccccc4NC3=O)o2)CC1` (stereo not given), for which the EC50 was > 800 nM.

Regarding `O=C1Nc2ccccc2C(c2ccccc2)=NC1Nc1nnc(-c2ccc(N3CCCC3)cc2)o1` (stereo not given), the EC50 entry was “in the range around 600 nM”.

As for `O=C1Nc2ccccc2C(c2ccccc2)=N[C@@H]1Nc1nnc(-c2nc(-c3ccccc3)sc2N2CCOCC2)o1`, the EC50 was < 400 nM.

Consider `O=C1Nc2ccccc2C(c2ccccc2)=N[C@@H]1Nc1nnc(-c2cnc(N3CCOCC3)cn2)o1`, for which the EC50 was > 800 nM.

As for `O=C1Nc2ccccc2C(c2ccccc2)=N[C@@H]1Nc1nnc(-c2ncc(C(F)(F)F)cc2N2CCOc3ccccc32)o1`, the EC50 is > 800 nM.

As for `O=C1Nc2ccccc2C(c2ccccc2)=N[C@@H]1Nc1nnc(-c2ncc(C(F)(F)F)cc2N[C@H]2CC[C@H]2O)o1`, the EC50 was > 800 nM.

For `O=C1Nc2ccccc2C(c2ccccc2)=NC1Nc1nc2cc(F)ccc2o1` (stereo not given), the 50% effective concentration (EC50) is > 800 nM.

With `O=C1Nc2ccccc2C(c2ccccc2)=NC1Nc1ncc(-c2ccc(F)cc2)o1` (stereo not given), the EC50 is > 800 nM.

For `COC(=O)c1ncc(C#N)cc1N1CCOCC1`, the EC50 is < 400 nM.

As for `COC(=O)c1nc(Br)sc1N1CCOCC1`, the concentration giving a half-maximal response (EC50) is < 400 nM.

As for `O=C1Nc2ccccc2C(c2ccccc2)=N[C@@H]1Nc1nnc(-c2cnc(-n3cncn3)nc2N2CCOCC2)o1`, the EC50 was > 800 nM.

For the compound `O=C1Nc2ccccc2C(c2ccccc2)=NC1Nc1ncc(-c2ccccc2)cn1` (stereo not given), the EC50 was > 800 nM.

With `O=C1Nc2ccccc2C(c2ccccc2)=NC1Nc1nnc(-c2ccc(F)cc2)[nH]1` (stereo not given), the EC50 was > 800 nM.

As for `O=C1Nc2ccccc2C(c2ccccc2)=NC1Nc1nc2ccc(F)cc2o1` (stereo not given), the EC50 was > 800 nM.

With `O=C1Nc2ccccc2C(c2ccccc2)=NC1Nc1ncc(-c2ccc(Br)cc2)o1` (stereo not given), the 50% effective concentration (EC50) was > 800 nM.

On to `COCCNc1sccc1-c1nnc(N[C@H]2N=C(c3ccccc3)c3ccccc3NC2=O)o1`, for which the EC50 was > 800 nM.

Consider `Cn1nnc(-c2ccc(-c3nnc(NC4N=C(c5ccccc5)c5ccccc5NC4=O)o3)cc2)n1` (stereo not given), for which the EC50 is > 800 nM.

On to `O=C1Nc2ccccc2C(c2ccccc2)=NC1Nc1nnc(-c2ccccc2C2CCOCC2)o1` (stereo not given), for which the EC50 is > 800 nM.

`CO[C@@H]1COC[C@H]1Nc1cc(C(F)(F)F)cnc1-c1nnc(N[C@H]2N=C(c3ccccc3)c3ccccc3NC2=O)o1`: the EC50 was < 400 nM.

As to `Cc1ccc(-c2nnc(N[C@H]3N=C(c4ccccc4)c4ccccc4NC3=O)o2)c(N2CCOCC2)n1`, the EC50 was < 400 nM.

On to `CN1CCN(c2ccccc2-c2nnc(NC3N=C(c4ccccc4)c4ccccc4NC3=O)o2)CC1` (stereo not given), for which the concentration giving a half-maximal response (EC50) is > 800 nM.

Consider `O=C1Nc2ccccc2C(c2ccccc2)=N[C@@H]1Nc1nnc(-c2cn(C3CCC3)nc2N2CCOCC2)o1`, for which the EC50 was < 400 nM.

Consider `N#Cc1cc(-c2nnc(NC3N=C(c4ccccc4)c4ccccc4NC3=O)o2)ccc1F` (stereo not given), for which the EC50 entry was “in the range around 600 nM”.

As to `O=c1c(Br)cccn1Cc1ccccc1`, the half-maximal effective concentration (EC50) was > 800 nM.

On to `O=C1Nc2ccccc2C(c2ccccc2)=N[C@H]1Nc1nnc(-c2ccccc2N2CCOCC2)o1`, for which the EC50 was > 800 nM.

For `O=C1Nc2ccccc2C(c2ccccc2)=N[C@@H]1Nc1nnc(-c2cnc(N3CC4CCC(C3)O4)nc2)o1`, the concentration for a half-maximal effect (EC50) was > 800 nM.

As to `O=C1Nc2ccccc2C(c2ccccc2)=N[C@@H]1Nc1nnc(-c2ncc(C(F)(F)F)cc2N[C@@H]2CCC[C@@H]2O)o1`, the EC50 result is “in the range around 600 nM”.

Regarding `COc1ccn2ncc(-c3nnc(N[C@H]4N=C(c5ccccc5)c5ccccc5NC4=O)o3)c2c1`, the EC50 is > 800 nM.

As to `O=C1Nc2ccccc2C(c2ccccc2)=NC1Nc1nnco1` (stereo not given), the 50% effective concentration (EC50) was > 800 nM.
